Data reported in paper PMC11062922 (Nature Chemical Biology, 2023).
Where two headings read alike, the source gives them in different places.

Experiments:
ACOX1 = molecular target: T1, ACOX1 (Homo sapiens, UniProt Q15067); assay: Kinobeads two-dose competition binding: ACOX1;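 note: competition of compounds with immobilized broad-spectrum kinase inhibitor beads in cell lysate at 100 and 1,000 nM, 45 min at 4 °C, bead-bound protein quantified by label-free MS versus DMSO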
T1 construct: endogenous in cells
T1 sequence (Q15067 1-660): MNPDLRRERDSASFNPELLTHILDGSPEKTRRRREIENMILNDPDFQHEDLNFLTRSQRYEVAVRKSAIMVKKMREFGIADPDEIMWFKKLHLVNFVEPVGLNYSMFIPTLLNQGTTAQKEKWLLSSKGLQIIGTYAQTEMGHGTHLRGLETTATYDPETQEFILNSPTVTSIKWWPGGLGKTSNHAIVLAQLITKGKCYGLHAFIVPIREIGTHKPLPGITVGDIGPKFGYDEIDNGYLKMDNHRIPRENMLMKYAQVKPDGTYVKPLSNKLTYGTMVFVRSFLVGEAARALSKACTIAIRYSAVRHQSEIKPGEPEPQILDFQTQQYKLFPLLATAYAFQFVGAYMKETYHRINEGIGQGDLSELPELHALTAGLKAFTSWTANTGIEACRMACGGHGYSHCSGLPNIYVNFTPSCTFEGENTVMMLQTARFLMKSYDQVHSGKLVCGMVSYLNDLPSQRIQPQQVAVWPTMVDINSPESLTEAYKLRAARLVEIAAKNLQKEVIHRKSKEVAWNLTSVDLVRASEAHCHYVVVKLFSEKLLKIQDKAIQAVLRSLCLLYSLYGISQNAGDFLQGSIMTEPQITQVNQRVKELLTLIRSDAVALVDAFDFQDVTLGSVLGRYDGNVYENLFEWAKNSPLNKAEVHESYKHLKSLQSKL

GSK3B = molecular target: T2, GSK3B (Homo sapiens, UniProt P49841); assay: Kinobeads two-dose competition binding: GSK3B; conditions: for CATDS: target GSK3B
T2 construct: endogenous in cells
T2 sequence (P49841 whole entry): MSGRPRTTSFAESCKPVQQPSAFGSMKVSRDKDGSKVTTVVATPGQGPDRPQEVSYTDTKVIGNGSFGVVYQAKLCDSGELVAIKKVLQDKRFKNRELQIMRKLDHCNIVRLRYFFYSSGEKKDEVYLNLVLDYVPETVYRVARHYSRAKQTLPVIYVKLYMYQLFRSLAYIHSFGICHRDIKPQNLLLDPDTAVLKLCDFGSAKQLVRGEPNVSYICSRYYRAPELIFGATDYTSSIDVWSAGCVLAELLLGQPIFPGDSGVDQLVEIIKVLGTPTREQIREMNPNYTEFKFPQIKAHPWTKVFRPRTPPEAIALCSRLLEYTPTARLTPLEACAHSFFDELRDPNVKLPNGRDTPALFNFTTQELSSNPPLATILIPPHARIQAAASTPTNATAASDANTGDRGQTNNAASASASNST

MAP3K6 = molecular target: T3, MAP3K6 (Homo sapiens, UniProt O95382); assay: Kinobeads two-dose competition binding: MAP3K6; conditions: for CATDS: target MAP3K6
T3 construct: endogenous in cells
T3 sequence (O95382 1-1288): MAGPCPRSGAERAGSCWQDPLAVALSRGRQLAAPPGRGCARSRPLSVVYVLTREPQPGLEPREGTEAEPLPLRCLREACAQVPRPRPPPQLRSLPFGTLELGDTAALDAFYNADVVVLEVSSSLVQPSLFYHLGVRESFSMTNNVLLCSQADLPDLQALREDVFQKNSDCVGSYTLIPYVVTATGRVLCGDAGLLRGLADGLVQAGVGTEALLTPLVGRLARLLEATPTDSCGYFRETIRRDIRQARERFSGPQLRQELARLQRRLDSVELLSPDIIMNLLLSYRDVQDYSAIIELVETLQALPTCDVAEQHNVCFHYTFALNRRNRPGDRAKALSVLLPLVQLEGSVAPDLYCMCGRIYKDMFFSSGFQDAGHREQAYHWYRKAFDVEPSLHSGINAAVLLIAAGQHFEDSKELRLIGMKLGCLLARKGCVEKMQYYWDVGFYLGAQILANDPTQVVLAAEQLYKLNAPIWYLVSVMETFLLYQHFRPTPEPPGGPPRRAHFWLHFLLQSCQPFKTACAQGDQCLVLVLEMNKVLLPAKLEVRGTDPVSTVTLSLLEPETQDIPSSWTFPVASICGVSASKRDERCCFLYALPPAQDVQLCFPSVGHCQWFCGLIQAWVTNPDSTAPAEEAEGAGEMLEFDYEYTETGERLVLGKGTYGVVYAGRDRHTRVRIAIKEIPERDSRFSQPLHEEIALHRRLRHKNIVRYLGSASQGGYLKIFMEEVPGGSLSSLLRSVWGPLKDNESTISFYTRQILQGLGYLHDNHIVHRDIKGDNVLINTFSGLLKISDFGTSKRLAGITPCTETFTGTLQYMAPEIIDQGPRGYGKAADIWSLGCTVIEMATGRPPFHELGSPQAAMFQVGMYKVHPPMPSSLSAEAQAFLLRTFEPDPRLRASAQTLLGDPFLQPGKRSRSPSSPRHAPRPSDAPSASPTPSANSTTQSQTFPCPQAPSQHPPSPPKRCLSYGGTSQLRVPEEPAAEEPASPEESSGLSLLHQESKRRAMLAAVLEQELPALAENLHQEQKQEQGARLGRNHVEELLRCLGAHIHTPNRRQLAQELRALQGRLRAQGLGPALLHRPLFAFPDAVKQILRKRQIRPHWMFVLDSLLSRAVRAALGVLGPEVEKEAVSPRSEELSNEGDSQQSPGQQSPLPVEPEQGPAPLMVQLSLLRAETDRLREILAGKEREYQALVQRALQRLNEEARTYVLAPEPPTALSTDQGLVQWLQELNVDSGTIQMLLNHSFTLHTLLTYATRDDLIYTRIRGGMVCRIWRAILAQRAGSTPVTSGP

[1] = sheet CATDS matrix 2, Gene Name ACOX1

Compound	CATDS (ACOX1; [1])	CATDS (ACOX1; target ACOX1)	CATDS (GSK3B)	CATDS (MAP3K6)	potency estimated from few doses (GSK3B; Kinobeads two-dose, Drugmatrix - all 2, read-out: apparent Kd GSK3B) [nM]	potency estimated from few doses (MAP3K6; Kinobeads two-dose, Drugmatrix - all 2, read-out: apparent Kd MAP3K6) [nM]	potency estimated from few doses (GSK3B; read-out: Lestaurtinib Drugmatrix value, Gene Name GSK3B) [nM]
Nc1ncnc2[nH]c(-c3ccccc3)nc12 [AH5015_KCGS]	0	0	0.07826	0	–	–	–
CCN1CCN(Cc2ccc(Nc3ncc(F)c(-c4cc(F)c5nc(C)n(C(C)C)c5c4)n3)nc2)CC1 [Abemaciclib]	0	0	–	0	–	–	–
CN(C)C/C=C/C(=O)Nc1cc2c(Nc3ccc(F)c(Cl)c3)ncnc2cc1O[C@H]1CCOC1 [Afatinib]	–	–	0	0	–	–	–
CCc1cc2c(cc1N1CCC(N3CCOCC3)CC1)C(C)(C)c1[nH]c3cc(C#N)ccc3c1C2=O [Alectinib]	0	0	0	0	–	–	–
N#CC1(c2ccc(NC(=O)c3cccnc3NCc3ccncc3)cc2)CCCC1 [Apatinib]	0	0	0	0	–	–	–
C#Cc1cccc(Nc2ncnc3cc(OC)c(OC4CCN(C)CC4)cc23)c1 [BI00007366]	0	–	–	–	–	–	–
CC(C)N1CC(=O)N(C)c2cnc(Nc3cccc(S(=O)(=O)CCN4CCOCC4)c3)nc21 [BI00009348]	0	–	–	–	783	698	–
C[C@]12O[C@H](C[C@]1(O)CO)n1c3ccccc3c3c4c(c5c6ccccc6n2c5c31)CNC4=O [Lestaurtinib]	–	–	–	–	–	–	295
